From BindingDB's records for doi:10.1016/j.bmcl.2005.05.127 (Wyeth Research, 2005)

What was measured:
[1] = Inhibitory concentration against human p21 […] cell (p21+/+) proliferation
[2] = Inhibitory concentration against human p21 deficient cell (p21-/-) proliferation
[3] = Inhibitory concentration against human p21 proficient cell (p21+/+) proliferation

IC50 [2] [µM]	IC50 [3] [µM]	Compound	IC50 [1] [µM]
–	–	O=C(c1cccs1)c1cnn2c(-c3cccc(NC(=O)C4CC4)c3)ccnc12	12
> 20	> 20	COc1ccc(-c2nc3sc4c(c3c(=O)[nH]2)CCCC4)cc1OC	–
–	–	COc1cc(-c2nc3sc4c(c3c(=O)[nH]2)CCCC4)cc(OC)c1OC	> 20
